Patent US10800789B2, “Antiviral compounds” (Gilead Pharmasset LLC, priority 2012, dated 2020)
Where two headings read alike, the source gives them in different places.

Key:
[1] = system: NS5A chimeric genotype 1b Con1 replicon with genotype 4a ED43 strain NS5A gene; assay: Replicon assay, genotype 4a NS5A chimera; format: cell-based, HCV; conditions: Hepatitis C virus
[2] = system: stable HCV 2a JFH-1 Rluc replicon cells (L31 present in NS5A); assay: Renilla luciferase HCV replicon reporter assay, genotype 2a JFH-1; format: cell-based; conditions: Hepatitis C virus
Description: (§1) Evaluation of Cell-Based Anti-HCV Activity:
(§2) Antiviral potency (EC50) was determined using a Renilla luciferase (RLuc)-based HCV replicon reporter assay. To perform the assay for genotype 1 and 2a JFH-1, stable HCV 1a RLuc replicon cells (harboring a dicistronic genotype 1a H77 replicon that encodes a RLuc reporter), stable HCV 1b RLuc replicon cells (harboring a dicistronic genotype 1b Con1 replicon that encodes a RLuc reporter), or stable HCV 2a JFH-1 Rluc replicon cells (harboring a dicistronic genotype 2a JFH-1 replicon that encodes a RLuc reporter; with L31 present in NS5A) were dispensed into 384-well plates for EC50 assays. To perform the assay for genotype 2a (with M31 present in NS5A) or 2b, NS5A chimeric genotype 2a JFH-1 replicons that encodes a RLuc-Neo reporter and either genotype 2a J6 strain NS5A gene or genotype 2b MD2b-1 strain NS5A gene (both with M31 present) respectively, were either transiently transfected (t) into Huh-Lunet cells or were established as stably replicating replicon cells (s) is provided. Either cells were dispensed into 384-well plates for EC50 assays. To perform the assay for genotype 3 and 4, NS5A chimeric genotype 1b Con1 replicons that encodes a Pi-RLuc reporter and either genotype 3a S52 strain NS5A gene or genotype 4a ED43 strain NS5A gene respectively, were transiently transfected (t) into Huh-Lunet cells, which were subsequently dispensed into 384-well plates. Compounds were dissolved in DMSO at a concentration of 10 mM and diluted in DMSO either manually or using an automated pipeting instrument. Serially 3-fold diluted compounds were either manually mixed with cell culture media and added to the seeded cells or directly added to the cells using an automated instrument. DMSO was used as a negative (solvent; no inhibition) control, and the protease inhibitor ITMN-191 was included at a concentration>100×EC50 as a positive control. 72 hours later, cells were lysed and Renilla luciferase activity quantified as recommended by the manufacturer (Promega-Madison, Wis.). Non-linear regression was performed to calculate EC50 values.

[3] = system: stable HCV 1a RLuc replicon cells (dicistronic genotype 1a H77 replicon); assay: Renilla luciferase HCV replicon reporter assay, genotype 1a; format: cell-based; conditions: Hepatitis C virus, 72 h, stable 1a H77 RLuc replicon cells
Description: as §1, §2

[4] = system: NS5A chimeric genotype 1b Con1 replicon with genotype 3a S52 strain NS5A gene; assay: Replicon assay, genotype 3a NS5A chimera; format: cell-based, HCV; conditions: Hepatitis C virus
[5] = system: stable HCV 1b RLuc replicon cells (dicistronic genotype 1b Con1 replicon); assay: Renilla luciferase HCV replicon reporter assay, genotype 1b; format: cell-based; conditions: Hepatitis C virus, 72 h, stable 1b Con1 RLuc replicon cells, 72 hours; read-out: 1b
Description: as §1, §2

[6] = system: NS5A chimeric genotype 2a JFH-1 replicon with genotype 2b MD2b-1 strain NS5A gene (M31 present); assay: Replicon assay, genotype 2b NS5A chimera; format: cell-based, HCV; conditions: Hepatitis C virus
Description: as §1, §2

[7] = system: NS5A chimeric genotype 2a JFH-1 replicon with genotype 2a J6 strain NS5A gene (M31 present); assay: Replicon assay, genotype 2a J6 NS5A chimera; format: cell-based, HCV; conditions: Hepatitis C virus, read-out: 2a J6 (t) (nM), genotype 2a J6 NS5A chimeric replicon (M31), transiently transfected (t) into Huh-Lunet cells
Description: as §1, §2

[8] = read-out: 4a (s) (nM), genotype 4a NS5A chimeric replicon, stable replicon cells (s)
[9] = read-out: 4a (s), (s), activity range
[10] = read-out: 2a JFH (nM), genotype 2a JFH-1 replicon (L31 in NS5A), stable cells
[11] = read-out: 2a JFH, stable 2a JFH-1 Rluc replicon cells, L31 in NS5A, activity range
[12] = read-out: 3a (s) (nM), genotype 3a NS5A chimeric replicon, stable replicon cells (s)
[13] = read-out: 3a (s), (s), activity range
[14] = 2BS, read-out: 2b (s), stably replicating replicon cells (s), activity range
[15] = read-out: 2b (s) (nM), genotype 2b MD2b-1 NS5A chimeric replicon (M31), stably replicating replicon cells (s)

For `CC[C@H]1CC[C@@H](c2ncc(-c3ccc4c(c3)COc3cc5c(ccc6nc([C@@H]7CC[C@H](C)N7C(=O)[C@@H](NC(=O)OC)[C@@H](C)OC)[nH]c65)cc3-4)[nH]2)N1C(=O)[C@@H](NC(=O)OC)C(C)C` [EQ, methyl{(2S,3R)-1-[(2S,5S)-2-(9-{2-[(2S,5S)-5-ethyl-1-{(2S)-2-[(methoxycarbonyl)amino]-3-methylbutanoyl}pyrrolidin-2-yl]-1H-imidazol-5-yl}-1,11-dihydroisochromeno[4′,3′:6,7]naphtho[1,2-d]imidazol-2-yl)-5-methylpyrrolidin-1-yl]-3-methoxy-1-oxobutan-2-yl}carbamate], the EC50 [1, 8] was 0.025 nM, the EC50 [1, 9] was < 0.1 nM and the EC50 [2, 10] was 0.022 nM. For the same molecule, the EC50 [2, 11] was < 0.1 nM, the EC50 [3] was 0.034 nM and the EC50 ([3]; activity range) was < 0.1 nM. For the same molecule, the EC50 [4, 12] was 0.475 nM, the EC50 [4, 13] was 0.1 to 0.999 nM and the EC50 [5] was 0.036 nM. The EC50 [6, 14] was 0.1 to 0.999 nM and the EC50 [6, 15] was 0.279 nM.

With `CC[C@H]1CC[C@@H](c2ncc(-c3ccc4c(c3)COc3cc5c(ccc6nc([C@@H]7C[C@H](COC)CN7C(=O)[C@@H](NC(=O)OC)C(C)C)[nH]c65)cc3-4)[nH]2)N1C(=O)[C@@H](NC(=O)OC)C(C)C` [ER, Methyl {(2S)-1-[(2S,4S)-2-(9-{2-[(2S,5S)-5-ethyl-1-{(2S)-2-[(methoxycarbonyl)amino]-3-methylbutanoyl}pyrrolidin-2-yl]-1H-imidazol-5-yl}-1,11-dihydroisochromeno[4′,3′:6,7]naphtho[1,2-d]imidazol-2-yl)-4-(methoxymethyl)pyrrolidin-1-yl]-3-methyl-1-oxobutan-2-yl}carbamate] the EC50 [1, 8] was 0.011 nM, the EC50 [1, 9] was < 0.1 nM and the EC50 [2, 10] was 0.021 nM. The EC50 [2, 11] was < 0.1 nM, the EC50 [3] was 0.016 nM and the EC50 ([3]; activity range) was < 0.1 nM. It also gave an EC50 [4, 12] of 2.8 nM, an EC50 [4, 13] of 1 to 44 nM and an EC50 [5] of 0.02 nM. The EC50 [6, 14] was 0.1 to 0.999 nM and the EC50 [6, 15] was 0.852 nM.

`COC(=O)N[C@H](C(=O)N1C[C@@H](C)C[C@H]1c1nc2ccc3cc4c(cc3c2[nH]1)OCc1cc(-c2cnc([C@@H]3CC[C@H](C)N3C(=O)[C@@H](NC(=O)OC)C3CCOCC3)[nH]2)ccc1-4)C(C)C` [FP, Methyl [(2S)-1-{(2S,4S)-2-[9-(2-{(2S,5S)-1-[(2S)-2-[(methoxycarbonyl)amino]-2-(tetrahydro-2H-pyran-4-yl)acetyl]-5-methylpyrrolidin-2-yl}-1H-imidazol-5-yl)-1,11-dihydroisochromeno[4′,3′:6,7]naphtho[1,2-d]imidazol-2-yl]-4-methylpyrrolidin-1-yl}-3-methyl-1-oxobutan-2-yl]carbamate] was tested, and the EC50 [1, 8] was 0.017 nM, the EC50 [1, 9] was < 0.1 nM and the EC50 [2, 10] was 0.016 nM. The EC50 [2, 11] was < 0.1 nM, the EC50 [3] was 0.016 nM and the EC50 ([3]; activity range) was < 0.1 nM. The EC50 [4, 12] was 0.052 nM, the EC50 [4, 13] was < 0.1 nM and the EC50 [5] was 0.024 nM. For the same molecule, the EC50 [6, 14] was < 0.1 nM and the EC50 [6, 15] was 0.085 nM.

In the case of `CC[C@H](C)[C@H](NC(=O)OC)C(=O)N1[C@@H](C)CC[C@H]1c1nc2ccc3cc4c(cc3c2[nH]1)OCc1cc(-c2cnc([C@@H]3C[C@H](COC)CN3C(=O)[C@@H](NC(=O)OC)C(C)C)[nH]2)ccc1-4` [FS, Methyl {(2S,3S)-1-[(2S,5S)-2-(9-{2-[(2S,4S)-1-{(2S)-2-[(methoxycarbonyl)amino]-3-methylbutanoyl}-4-(methoxymethyl)pyrrolidin-2-yl]-1H-imidazol-5-yl}-1,11-dihydroisochromeno[4′,3′:6,7]naphtho[1,2-d]imidazol-2-yl)-5-methylpyrrolidin-1-yl]-3-methyl-1-oxopentan-2-yl}carbamate], the EC50 [1, 8] is reported as 0.017 nM, the EC50 [1, 9] is reported as < 0.1 nM and the EC50 [2, 10] is reported as 0.025 nM. For the same molecule, the EC50 [2, 11] was < 0.1 nM, the EC50 [3] was 0.024 nM and the EC50 ([3]; activity range) was < 0.1 nM. For the same molecule, the EC50 [4, 12] was 0.411 nM, the EC50 [4, 13] was 0.1 to 0.999 nM and the EC50 [5] was 0.025 nM. The EC50 [6, 14] was 0.1 to 0.999 nM and the EC50 [6, 15] was 0.784 nM.

In the case of `CC[C@H](C)[C@H](NC(=O)OC)C(=O)N1C[C@@H](COC)C[C@H]1c1ncc(-c2ccc3c(c2)COc2cc4c(ccc5nc([C@@H]6CC[C@H](C)N6C(=O)[C@@H](NC(=O)OC)[C@@H](C)OC)[nH]c54)cc2-3)[nH]1` [FT, Methyl {(2S,3S)-1-[(2S,4S)-2-(5-{2-[(2S,5S)-1-{(2S,3R)-3-methoxy-2-[(methoxycarbonyl)amino]butanoyl}-5-methylpyrrolidin-2-yl]-1,11-dihydroisochromeno[4′,3′:6,7]naphtho[1,2-d]imidazol-9-yl}-1H-imidazol-2-yl)-4-(methoxymethyl)pyrrolidin-1-yl]-3-methyl-1-oxopentan-2-yl}carbamate], the EC50 [1, 8] is reported as 0.028 nM, the EC50 [1, 9] is reported as < 0.1 nM and the EC50 [2, 10] is reported as 0.029 nM. The EC50 [2, 11] was < 0.1 nM, the EC50 [3] was 0.04 nM and the EC50 ([3]; activity range) was < 0.1 nM. For the same molecule, the EC50 [4, 12] was 0.283 nM, the EC50 [4, 13] was 0.1 to 0.999 nM and the EC50 [5] was 0.045 nM. For the same molecule, the EC50 [6, 14] was 0.1 to 0.999 nM and the EC50 [6, 15] was 0.395 nM.

For `COC(=O)N[C@H](C(=O)N1[C@@H](C)CC[C@H]1c1ncc(-c2ccc3c(c2)COc2cc4c(ccc5nc([C@@H]6C[C@H](C)CN6C(=O)[C@@H](NC(=O)OC)[C@H](C)OC)[nH]c54)cc2-3)[nH]1)C(C)C` [FU, Methyl {(2S)-1-[(2S,5S)-2-(5-{2-[(2S,4S)-1-{(2S,3S)-3-methoxy-2-[(methoxycarbonyl)amino]butanoyl}-4-methylpyrrolidin-2-yl]-1,11-dihydroisochromeno[4′,3′:6,7]naphtho[1,2-d]imidazol-9-yl}-1H-imidazol-2-yl)-5-methylpyrrolidin-1-yl]-3-methyl-1-oxobutan-2-yl}carbamate], the EC50 [1, 8] was 0.018 nM, the EC50 [1, 9] was < 0.1 nM and the EC50 [2, 10] was 0.021 nM. For the same molecule, the EC50 [2, 11] was < 0.1 nM, the EC50 [3] was 0.028 nM and the EC50 ([3]; activity range) was < 0.1 nM. It also gave an EC50 [4, 12] of 0.337 nM, an EC50 [4, 13] of 0.1 to 0.999 nM and an EC50 [5] of 0.032 nM. For the same molecule, the EC50 [6, 14] was 0.1 to 0.999 nM and the EC50 [6, 15] was 0.347 nM.

`COC(=O)N[C@H](C(=O)N1C[C@@H](C)C[C@H]1c1ncc(-c2ccc3c(c2)COc2cc4c(ccc5nc([C@@H]6CC[C@H](C)N6C(=O)[C@@H](NC(=O)OC)[C@@H](C)OC)[nH]c54)cc2-3)[nH]1)C(C)C` [GH, Methyl {(2S)-1-[(2S,4S)-2-(5-{2-[(2S,5S)-1-{(2S,3R)-3-methoxy-2-[(methoxycarbonyl)amino]butanoyl}-5-methylpyrrolidin-2-yl]-1,11-dihydroisochromeno[4′,3′:6,7]naphtho[1,2-d]imidazol-9-yl}-1H-imidazol-2-yl)-4-methylpyrrolidin-1-yl]-3-methyl-1-oxobutan-2-yl}carbamate] was tested, and the EC50 [2, 10] was 0.011 nM, the EC50 [2, 11] was < 0.1 nM and the EC50 [3] was 0.02 nM. For the same molecule, the EC50 ([3]; activity range) was < 0.1 nM, the EC50 [4, 12] was 0.07 nM and the EC50 [4, 13] was < 0.1 nM. For the same molecule, the EC50 [5] was 0.027 nM, the EC50 [6, 14] was 0.1 to 0.999 nM and the EC50 [6, 15] was 0.247 nM.

Work on `CC[C@H](C)[C@H](NC(=O)OC)C(=O)N1CCC[C@H]1c1ncc(-c2ccc3c(c2)COc2cc4c(ccc5nc([C@@H]6CCCN6C(=O)[C@@H](NC(=O)OC)[C@@H](C)CC)[nH]c54)cc2-3)[nH]1` [HH] yielded an EC50 [1, 8] of 0.011 nM, an EC50 [2, 10] of 0.012 nM and an EC50 [4, 12] of 0.06 nM. It also gave an EC50 [7] of 3 nM and an EC50 [6, 15] of 2.25 nM.
